The target of the assay is PI3Kδ (p110δ/p85α) (Homo sapiens (Human), UniProt O00329). Description: Example A3: PI3Kδ scintillation proximity assay. It counts as biochemical. The following applies: scintillation proximity assay, 20 μM ATP, 4 nM PI3Kδ; read-out: PI3Kδ SPA IC50. An outline of the steps: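 p110δ/p85α (4 nM) phosphorylated 20 μM PIP2 with 20 μM ATP plus [γ-33P]ATP in MOPS pH 6.7, MgCl2, DTT, CHAPS, 0.5% DMSO, at RT. Stopped with EDTA/excess ATP, product captured on WGA SPA beads overnight and counted; IC50 from percent control activity versus log inhibitor.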
Sequence of PI3Kδ (p110δ/p85α) (O00329 whole entry): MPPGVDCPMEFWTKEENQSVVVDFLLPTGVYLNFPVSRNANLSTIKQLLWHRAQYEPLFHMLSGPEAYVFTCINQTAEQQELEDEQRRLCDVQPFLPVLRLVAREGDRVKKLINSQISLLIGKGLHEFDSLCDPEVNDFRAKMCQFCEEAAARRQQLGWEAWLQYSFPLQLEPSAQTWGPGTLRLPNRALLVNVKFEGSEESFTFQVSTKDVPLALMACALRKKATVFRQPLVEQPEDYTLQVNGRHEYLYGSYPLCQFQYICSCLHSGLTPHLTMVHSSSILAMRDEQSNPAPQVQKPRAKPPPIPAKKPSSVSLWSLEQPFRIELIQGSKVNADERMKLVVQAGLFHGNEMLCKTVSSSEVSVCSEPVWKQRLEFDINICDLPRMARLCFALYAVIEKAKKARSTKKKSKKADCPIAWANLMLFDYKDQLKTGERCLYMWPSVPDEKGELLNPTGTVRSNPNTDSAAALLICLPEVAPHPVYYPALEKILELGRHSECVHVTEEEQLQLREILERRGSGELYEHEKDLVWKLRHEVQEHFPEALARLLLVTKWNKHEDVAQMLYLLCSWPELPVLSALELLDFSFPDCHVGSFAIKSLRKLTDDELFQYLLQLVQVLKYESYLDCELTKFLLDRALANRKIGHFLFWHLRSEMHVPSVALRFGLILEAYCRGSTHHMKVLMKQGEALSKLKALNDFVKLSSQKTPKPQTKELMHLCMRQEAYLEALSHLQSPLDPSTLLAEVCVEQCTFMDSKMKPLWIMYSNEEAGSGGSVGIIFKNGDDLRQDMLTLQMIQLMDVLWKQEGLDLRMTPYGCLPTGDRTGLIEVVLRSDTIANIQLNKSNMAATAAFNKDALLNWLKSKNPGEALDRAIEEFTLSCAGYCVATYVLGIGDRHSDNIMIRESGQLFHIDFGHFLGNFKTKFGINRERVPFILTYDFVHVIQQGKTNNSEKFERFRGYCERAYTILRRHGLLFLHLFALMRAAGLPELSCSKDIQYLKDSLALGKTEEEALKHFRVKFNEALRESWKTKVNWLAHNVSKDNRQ
Sequence of PI3Kδ (p110δ/p85α) (P27986 whole entry partner): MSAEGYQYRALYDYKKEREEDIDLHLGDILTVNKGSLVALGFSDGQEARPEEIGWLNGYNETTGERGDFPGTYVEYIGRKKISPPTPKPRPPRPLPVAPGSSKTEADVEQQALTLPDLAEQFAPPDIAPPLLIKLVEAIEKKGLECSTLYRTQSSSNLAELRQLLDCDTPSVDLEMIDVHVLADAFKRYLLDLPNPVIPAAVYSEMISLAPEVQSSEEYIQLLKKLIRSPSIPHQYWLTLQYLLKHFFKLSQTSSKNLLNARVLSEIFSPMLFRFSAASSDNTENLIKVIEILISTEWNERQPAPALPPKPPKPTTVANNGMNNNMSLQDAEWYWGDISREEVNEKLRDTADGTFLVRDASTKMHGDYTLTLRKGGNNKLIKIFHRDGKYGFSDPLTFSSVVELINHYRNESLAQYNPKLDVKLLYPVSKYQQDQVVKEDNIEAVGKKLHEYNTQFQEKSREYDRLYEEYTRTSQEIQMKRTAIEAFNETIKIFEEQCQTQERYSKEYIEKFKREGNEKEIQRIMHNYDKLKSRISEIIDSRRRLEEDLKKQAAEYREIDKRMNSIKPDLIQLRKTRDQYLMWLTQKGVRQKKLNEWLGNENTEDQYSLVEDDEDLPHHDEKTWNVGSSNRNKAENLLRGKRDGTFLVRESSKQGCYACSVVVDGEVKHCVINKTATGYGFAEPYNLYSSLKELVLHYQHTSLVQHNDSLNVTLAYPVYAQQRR
(In a scintillation proximity assay essentially only radioactivity close to the scintillant gives light.)

Where a name gives a salt, the structure may show the parent alone.

On to `COc1c(C(C)n2nc(C)c3c(N)ncnc32)cc(Cl)c(C)c1C1CN(C(=O)c2cnn(C)c2)C1` (single isomer, unassigned) [Example 117, 1-[1-(5-Chloro-2-methoxy-4-methyl-3-{1-[(1-methyl-1H-pyrazol-4-yl)carbonyl]azetidin-3-yl}phenyl)ethyl]-3-methyl-1H-pyrazolo[3,4-d]pyrimidin-4-amine], for which the IC50 is less than 10 nM.

`COc1c(C(C)n2nc(C)c3c(N)ncnc32)cc(Cl)c(C#N)c1C1CN(C(C)=O)C1` (single isomer, unassigned) [Example 281, 2-(1-Acetylazetidin-3-yl)-4-[1-(4-amino-3-methyl-1H-pyrazolo[3,4-d]pyrimidin-1-yl)ethyl]-6-chloro-3-methoxybenzonitrile]: the IC50 was less than 10 nM.

As to `COc1c(C(C)n2nc(C)c3c(N)ncnc32)cc(Cl)c(C#N)c1C1CN(CC2CCOC2)C1` (single isomer, unassigned) [Example 279, 4-[1-(4-Amino-3-methyl-1H-pyrazolo[3,4-d]pyrimidin-1-yl)ethyl]-6-chloro-3-methoxy-2-[1-(tetrahydrofuran-3-ylmethyl)azetidin-3-yl]benzonitrile], the concentration for half-maximal inhibition (IC50) was less than 10 nM.

Consider `CCOc1c(C(C)n2nc(C)c3c(N)ncnc32)cc(Cl)c(C)c1C1CN(CC(C)(C)O)C1` (single isomer, unassigned) [Example 98, 1-(3-{3-[1-(4-Amino-3-methyl-1H-pyrazolo[3,4-d]pyrimidin-1-yl)ethyl]-5-chloro-2-ethoxy-6-methylphenyl}azetidin-1-yl)-2-methylpropan-2-ol], for which the IC50 is less than 10 nM.

Consider `COc1c(C(C)n2nc(C(F)F)c3c(N)ncnc32)cc(C#N)c(C)c1C1CN(C(C)=O)C1` (racemic) [Example 138, 3-(1-Acetylazetidin-3-yl)-5-{1-[4-amino-3-(difluoromethyl)-1H-pyrazolo[3,4-d]pyrimidin-1-yl]ethyl}-4-methoxy-2-methylbenzonitrile], for which the IC50 is less than 10 nM.

For the compound `CCOc1c(C(C)n2nc(C)c3c(N)ncnc32)cc(Cl)c(C#N)c1C1CN(CC#N)C1` (single isomer, unassigned) [Example 235, 4-[1-(4-Amino-3-methyl-1H-pyrazolo[3,4-d]pyrimidin-1-yl)ethyl]-6-chloro-2-[1-(cyanomethyl)azetidin-3-yl]-3-ethoxybenzonitrile], the IC50 is less than 10 nM.

Turning to `CCOc1c(C(C)n2nc(C)c3c(N)ncnc32)cc(Cl)c(C#N)c1-c1ccc(-c2nnc(C)o2)nc1` (racemic) [Example 338, 4-[1-(4-amino-3-methyl-1H-pyrazolo[3,4-d]pyrimidin-1-yl)ethyl]-6-chloro-3-ethoxy-2-[6-(5-methyl-1,3,4-oxadiazol-2-yl)pyridin-3-yl]benzonitrile], the IC50 was less than 10 nM.

For `COc1c(C(C)n2cc(C)c3c(N)ncnc32)cc(Cl)c(C)c1-c1ccc(C(=O)N(C)C)nc1` (racemic) [Example 42, 5-{3-[1-(4-Amino-5-methyl-7H-pyrrolo[2,3-d]pyrimidin-7-yl)ethyl]-5-chloro-2-methoxy-6-methylphenyl}-N,N-dimethylpyridine-2-carboxamide], the IC50 was less than 10 nM.

Regarding `CCOc1c(C(C)n2nc(C)c3c(N)ncnc32)cc(Cl)c(C#N)c1C1CN(C2CCOCC2)C1` (single isomer, unassigned) [Example 229, 4-[1-(4-Amino-3-methyl-1H-pyrazolo[3,4-d]pyrimidin-1-yl)ethyl]-6-chloro-3-ethoxy-2-[1-(tetrahydro-2H-pyran-4-yl)azetidin-3-yl]benzonitrile], the IC50 was less than 10 nM.

In the case of `CCNC(=O)c1c(C)c(Cl)cc(C(C)n2nc(C)c3c(N)ncnc32)c1-c1cc(F)cc(F)c1` (racemic) [Example 37, 6-[1-(4-amino-3-methyl-1H-pyrazolo[3,4-d]pyrimidin-1-yl)ethyl]-4-chloro-N-ethyl-3′,5′-difluoro-3-methylbiphenyl-2-carboxamide], the IC50 is less than 10 nM.

As for `CCOc1c(C(C)n2nc(C)c3c(N)ncnc32)cc(Cl)c(C#N)c1C1CN(CC2CCOC2)C1` (single isomer, unassigned) [Example 231, 4-[1-(4-Amino-3-methyl-1H-pyrazolo[3,4-d]pyrimidin-1-yl)ethyl]-6-chloro-3-ethoxy-2-[1-(tetrahydrofuran-3-ylmethyl)azetidin-3-yl]benzonitrile], the IC50 is less than 10 nM.

For the compound `CCNC(=O)c1c(C)c(Cl)cc(C(C)n2nc(-c3cc(O)cc(F)c3)c3c(N)ncnc32)c1OCC` (racemic) [Example 88, 3-{1-[4-Amino-3-(3-fluoro-5-hydroxyphenyl)-1H-pyrazolo[3,4-d]pyrimidin-1-yl]ethyl}-5-chloro-2-ethoxy-N-ethyl-6-methylbenzamide], the IC50 was less than 10 nM.

On to `CCNC(=O)c1c(C)c(Cl)cc(C(C)n2nc(-c3ccc4cn[nH]c4c3)c3c(N)ncnc32)c1OCC` (racemic) [Example 92, 3-{1-[4-Amino-3-(1H-indazol-6-yl)-1H-pyrazolo[3,4-d]pyrimidin-1-yl]ethyl}-5-chloro-2-ethoxy-N-ethyl-6-methylbenzamide], for which the IC50 was less than 10 nM.

On to `CCOc1c(C(C)n2cc(C)c3c(N)ncnc32)cc(Cl)c(C#N)c1C1CN(CCO)C1` (stereo not drawn) [Example 308, 4-[1-(4-Amino-5-methyl-7H-pyrrolo[2,3-d]pyrimidin-7-yl)ethyl]-6-chloro-3-ethoxy-2-[1-(2-hydroxyethyl)azetidin-3-yl]benzonitrile], for which the IC50 was less than 10 nM.

As for `COc1c(C(C)n2nc(C)c3c(N)ncnc32)cc(Cl)c(C)c1C1CN(C)C1` (racemic) [Example 5, 1-{1-[5-chloro-2-methoxy-4-methyl-3-(1-methylazetidin-3-yl)phenyl]ethyl}-3-methyl-1H-pyrazolo[3,4-d]pyrimidin-4-amine], the IC50 was less than 10 nM.

As to `COc1c(C(C)n2nc(C)c3c(N)ncnc32)cc(Cl)c(Cl)c1C1CN(C[C@@H](C)O)C1` (stereo partly drawn) [Example 302, (2R)-1-(3-{3-[1-(4-Amino-3-methyl-1H-pyrazolo[3,4-d]pyrimidin-1-yl)ethyl]-5,6-dichloro-2-methoxyphenyl}azetidin-1-yl)propan-2-ol], the 50% inhibitory concentration (IC50) was less than 10 nM.

With `CCOc1c(C(C)n2nc(C)c3c(N)ncnc32)cc(Cl)c(C#N)c1C1CN(C2CCOC2)C1` (single isomer, unassigned) [Example 228, 4-[1-(4-Amino-3-methyl-1H-pyrazolo[3,4-d]pyrimidin-1-yl)ethyl]-6-chloro-3-ethoxy-2-[1-(tetrahydrofuran-3-yl)azetidin-3-yl]benzonitrile], the IC50 was less than 10 nM.

In the case of “4-[1-(4-Amino-3-methyl-1H-pyrazolo[3,4-d]pyrimidin-1-yl)ethyl]-6-chloro-2-[1-(2-hydroxyethyl)azetidin-3-yl]-3-methoxybenzonitrile-d4 [Example 297]”, the IC50 was less than 10 nM.

Consider `COc1c(C(C)n2nc(C)c3c(N)ncnc32)cc(C)c(C#N)c1C1CN(CC(C)(C)O)C1` (stereo not drawn) [Example 328, 4-[-1-(4-amino-3-methyl-1H-pyrazolo[3,4-d]pyrimidin-1-yl)ethyl]-2-[l-(2-hydroxy-2-methylpropyl)azetidin-3-yl]-3-methoxy-6-methylbenzonitrile], for which the IC50 was less than 10 nM.

Consider `COc1c(C(C)n2nc(C)c3c(N)ncnc32)cc(Cl)c(C)c1C1CN(CC(C)C)C1` (racemic) [Example 7, 1-{1-[5-Chloro-3-(1-isobutylazetidin-3-yl)-2-methoxy-4-methylphenyl]ethyl}-3-methyl-1H-pyrazolo[3,4-d]pyrimidin-4-amine], for which the half-maximal inhibitory concentration (IC50) was less than 10 nM.

Consider `COc1c(C(C)n2nc(C)c3c(N)ncnc32)cc(Cl)c(C)c1C1CN(C(CO)C(F)(F)F)C1` (stereo not drawn) [Example 113, 2-(3-{3-[1-(4-Amino-3-methyl-1H-pyrazolo[3,4-d]pyrimidin-1-yl)ethyl]-5-chloro-2-methoxy-6-methylphenyl}azetidin-1-yl)-3,3,3-trifluoropropan-1-ol], for which the IC50 is less than 10 nM.

As to `COc1c(C(C)n2nc(C)c3c(N)ncnc32)cc(Cl)c(F)c1C1CN(CCO)C1` (racemic) [Example 71, 2-(3-{3-[1-(4-Amino-3-methyl-1H-pyrazolo[3,4-d]pyrimidin-1-yl)ethyl]-5-chloro-6-fluoro-2-methoxyphenyl}azetidin-1-yl)ethanol], the IC50 is less than 10 nM.

`COc1c(C(C)n2nc(C)c3c(N)ncnc32)cc(Cl)c(C)c1C1CN(C2COC2)C1` (racemic) [Example 63, 1-{1-[5-chloro-2-methoxy-4-methyl-3-(1-oxetan-3-ylazetidin-3-yl)phenyl]ethyl}-3-methyl-1H-pyrazolo[3,4-d]pyrimidin-4-amine]: the IC50 is less than 10 nM.

Turning to `COc1c(C(C)n2nc(C)c3c(N)ncnc32)cc(Cl)c(C)c1C1CN([C@H](C)CO)C1` (stereo partly drawn) [Example 156, (2R)-2-(3-{3-[1-(4-Amino-3-methyl-1H-pyrazolo[3,4-d]pyrimidin-1-yl)ethyl]-5-chloro-2-methoxy-6-methylphenyl}azetidin-1-yl)propan-1-ol], the IC50 was less than 10 nM.

`CCOc1c(C(C)n2nc(C)c3c(N)ncnc32)cc(C)c(C#N)c1C1CN(C(C)C)C1` (racemic) [Example 320, 4-[1-(4-amino-3-methyl-1H-pyrazolo[3,4-d]pyrimidin-1-yl)ethyl]-3-ethoxy-2-(1-isopropylazetidin-3-yl)-6-methylbenzonitrile]: the IC50 is less than 10 nM.

Take `COc1c(C(C)n2nc(C)c3c(N)ncnc32)cc(Cl)c(C)c1C1CN(C(C)=O)C1` (stereo not drawn) [Example 2, 1-{1-[3-(1-Acetylazetidin-3-yl)-5-chloro-2-methoxy-4-methylphenyl]ethyl}-3-methyl-1H-pyrazolo[3,4-d]pyrimidin-4-amine trifluoroacetate]: the IC50 was less than 10 nM.

In the case of `COc1c(C(C)n2nc(C)c3c(N)ncnc32)cc(Cl)c(C)c1-c1ccnc(C(=O)N(C)C)c1` (stereo not drawn) [Example 16, 4-{3-[1-(4-Amino-3-methyl-1H-pyrazolo[3,4-d]pyrimidin-1-yl)ethyl]-5-chloro-2-methoxy-6-methylphenyl}-N,N-dimethylpyridine-2-carboxamide], the IC50 is less than 10 nM.

Broadly, the IC50 is the concentration that gives 50% inhibition.

These data come from patent publication US10092570B2 (Incyte Corporation, priority 2011, dated 2018).
